Data on 4 compounds can be found in PubChem BioAssay AID624124 (The Scripps Research Institute Molecular Screening Center, 2012).

In the assay the target is Tyrosine-protein kinase ABL1 (Homo sapiens) + Ras and Rab interactor 1 (Homo sapiens) (UniProt P00519+Q13671). The experiment in a line: Rin1/ABL1 binding disruption, potency – biochemical, TR-FRET, round 1, late-stage follow-up (AID 624124). The following applies: TR-FRET Rin1-Abl binding assay.
Tyrosine-protein kinase ABL1 (Homo sapiens) + Ras and Rab interactor 1 (Homo sapiens), sequence (P00519 whole entry, looked up): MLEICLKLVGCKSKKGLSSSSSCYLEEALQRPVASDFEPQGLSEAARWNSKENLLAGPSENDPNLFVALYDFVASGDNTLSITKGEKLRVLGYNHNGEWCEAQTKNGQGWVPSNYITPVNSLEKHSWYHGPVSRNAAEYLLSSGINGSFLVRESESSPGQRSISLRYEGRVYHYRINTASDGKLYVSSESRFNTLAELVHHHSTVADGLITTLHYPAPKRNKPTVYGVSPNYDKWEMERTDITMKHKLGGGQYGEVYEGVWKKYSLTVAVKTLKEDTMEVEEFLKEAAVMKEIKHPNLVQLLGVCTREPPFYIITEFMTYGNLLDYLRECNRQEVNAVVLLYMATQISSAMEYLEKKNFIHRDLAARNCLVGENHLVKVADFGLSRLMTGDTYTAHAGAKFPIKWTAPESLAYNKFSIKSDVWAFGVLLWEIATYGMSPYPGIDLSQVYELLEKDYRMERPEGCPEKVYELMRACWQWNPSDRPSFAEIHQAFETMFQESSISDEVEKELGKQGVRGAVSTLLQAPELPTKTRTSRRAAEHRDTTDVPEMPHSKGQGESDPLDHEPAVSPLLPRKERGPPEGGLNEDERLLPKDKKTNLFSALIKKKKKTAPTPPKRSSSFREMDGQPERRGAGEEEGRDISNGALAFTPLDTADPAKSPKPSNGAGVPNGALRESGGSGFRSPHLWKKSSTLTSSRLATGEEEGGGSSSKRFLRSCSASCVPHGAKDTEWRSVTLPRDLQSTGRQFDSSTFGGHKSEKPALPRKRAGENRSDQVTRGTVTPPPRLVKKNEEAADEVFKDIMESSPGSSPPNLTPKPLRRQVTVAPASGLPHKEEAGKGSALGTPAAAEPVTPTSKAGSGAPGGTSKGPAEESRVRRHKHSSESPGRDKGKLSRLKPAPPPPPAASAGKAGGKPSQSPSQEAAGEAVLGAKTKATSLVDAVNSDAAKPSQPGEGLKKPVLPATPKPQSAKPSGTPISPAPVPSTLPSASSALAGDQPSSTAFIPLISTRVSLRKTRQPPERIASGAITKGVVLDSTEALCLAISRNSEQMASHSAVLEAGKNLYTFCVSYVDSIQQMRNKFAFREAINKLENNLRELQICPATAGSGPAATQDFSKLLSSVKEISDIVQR
Tyrosine-protein kinase ABL1 (Homo sapiens) + Ras and Rab interactor 1 (Homo sapiens), sequence (Q13671 whole entry, looked up): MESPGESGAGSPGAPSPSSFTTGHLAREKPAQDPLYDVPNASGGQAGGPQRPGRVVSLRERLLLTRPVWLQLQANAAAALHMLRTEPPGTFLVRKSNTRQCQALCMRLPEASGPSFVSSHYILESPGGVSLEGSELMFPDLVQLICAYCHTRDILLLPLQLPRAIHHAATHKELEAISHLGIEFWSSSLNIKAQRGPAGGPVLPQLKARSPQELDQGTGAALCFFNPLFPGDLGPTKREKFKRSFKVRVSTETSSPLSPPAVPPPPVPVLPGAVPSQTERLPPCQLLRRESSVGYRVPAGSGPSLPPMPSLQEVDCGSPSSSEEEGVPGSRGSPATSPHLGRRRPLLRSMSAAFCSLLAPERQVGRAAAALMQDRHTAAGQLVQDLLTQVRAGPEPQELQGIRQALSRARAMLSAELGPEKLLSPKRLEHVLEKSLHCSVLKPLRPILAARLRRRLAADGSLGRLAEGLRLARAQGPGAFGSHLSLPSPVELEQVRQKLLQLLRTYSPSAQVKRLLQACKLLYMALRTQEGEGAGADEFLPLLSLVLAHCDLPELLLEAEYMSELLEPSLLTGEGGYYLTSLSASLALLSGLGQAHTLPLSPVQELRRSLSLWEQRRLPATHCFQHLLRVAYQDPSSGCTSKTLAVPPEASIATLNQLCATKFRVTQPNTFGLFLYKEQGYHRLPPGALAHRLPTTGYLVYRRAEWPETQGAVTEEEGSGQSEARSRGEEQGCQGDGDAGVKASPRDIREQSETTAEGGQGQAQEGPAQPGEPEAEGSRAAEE

As to `COc1ccc(C(=O)N2CCC(C(=O)Nc3ccc(CC(=O)Nc4ccc(C(=O)N(C)C5CC5)cc4)cc3)CC2)cc1`, the IC50 – broadly, the concentration needed to halve the response being measured – was 3.67 µM.
To `CN(C(=O)c1ccc(NC(=O)Cc2ccc(NC(=O)C3CCN(C(=O)c4ccc(F)cc4)CC3)cc2)cc1)C1CC1` belongs 1.06 µM; to `CN(C(=O)c1ccc(NC(=O)Cc2ccc(NC(=O)C3CCN(C(=O)c4ccccc4)CC3)cc2)cc1)C1CC1`, 0.62 µM; to `CN(C(=O)c1ccc(NC(=O)Cc2ccc(NC(=O)C3CCN(C(=O)c4cccc(F)c4)CC3)cc2)cc1)C1CC1`, 1.35 µM.
